# Reference: patent US8835392B2, “Mimetic peptides and the use thereof in the form of 20S, 26S and immunoproteasome inhibitors” (Technische Universität, priority 2005, dated 2014)
# Where a SMILES comes first, the peptide text is derived from it. The star is where a group is joined. Cbz = O=C(OCc1ccccc1)*; OtBu = CC(C)(C)O*
# What was measured:
# [1] = target: T1, 20S proteasome β5 chymotrypsin-like activity (GLL-MCA) (Homo sapiens, UniProt P20618+P28074); test: Protease assay, chymotrypsin-like activity of isolated 20S proteasomes (GLL substrate); assay type: biochemical; settings: isolated 20S proteasome; GLL-MCA 50 μM; 15 min pre-incubation; read-out: IC50 β5 Chym.-like (L)
# T1 construct: Proteasomes were isolated from red blood cells; from tissue; host or cells: red blood cells
# Protocol: Proteasomes were isolated from red blood cells. Cells were lysed with DTT (1 mM), and the stroma-free supernatant was loaded on DEAE-sepharose (Toyopearls). Proteasome was eluted with an NaCl-gradient in TEAD (20 mM TrisCl pH 7.4, 1 mM EDTA, 1 mM azide, 1 mM DTT) of 100 to 300 mM NaCl. Proteasome was concentrated using ammonium sulfate-precipitation (between 40 and 70% saturation) and was separated in a 10-40% sucrose-gradient through centrifugation at 40.000 rpm for 16 hours (SW40; L7, Beckman & Coulter). Finally, the proteasomes were purified on a MonoQ-column and eluted with an NaCl-gradient at about 280 mM NaCl. The fractions containing purified proteasome were dialysed against 50 mM NaCl in TEAD and stored on ice. The purity was determined using SDS-PAGE.
# Suc-LLVY-AMC, Z-VGR-AMC and LLE-AMC (BACHEM, Calbiochem) was used, in order to determine the chymotrypsin-like, trypsin-like or caspase-like (post-acidic)-activities of the proteasome. Substrate was incubated with proteasome at 37° C. in assay-buffer (20 mM Tris/Cl, pH 7.2, 1 mM EDTA, 1 mM DTT) for one hour. 100 ng proteasome was pre-incubated with 0.01-10 μM of the inhibitor for […]. The reaction was started by the addition of substrate (50 μM). The AMC as released was detected using fluorescence emission at 460 nm (excitation at 390 nm) using a TECAN-fluorimeter. The activity was calculated in fluorescence-units. The inhibition is depicted by IC50-values.
# The IC50-values form the inhibition of the proteasome were calculated at increasing concentrations of the inhibitor. The samples were pre-incubated for 15 min in ice. The assay was started through the addition of 50 μM of one of the following fluorogenic peptide substrates:
# The release of MCA was determined at 460 nm emission (excitation 390 nm). The IC50-values as calculated for MG132 served as controls.
# Fibroblasts = test: Viability of fibroblasts (control); assay type: cell-based; settings: Fibroblast, identical conditions (72 h), read-out: concentration for 50% reduction of the viability
# [2] = test system: T2, 20S proteasome of S. cerevisiae; test: Co-crystallisation with 20S yeast-proteasome
# T2 construct: crystals of the 20S proteasome of S. cerevisiae were generated in hanging drops
# Protocol: For this, crystals of the 20S proteasome of S. cerevisiae were generated in hanging drops at 24° C., as described earlier (6), and incubated for 60 min with compound 15. The protein concentration as used for the crystallization was 40 mg/ml in Tris-HCl (10 mM, pH 7.5), and EDTA (1 mM). The drops contained 3 μl protein and 2 μl reservoir-solution, containing 30 mM magnesium acetate, 100 mM morpholino ethanesulfonic acid (pH 7.2) and 10% MPD.
# The space group belonged to P21 with cellular dimensions of a=135.8 Å, b=300.1 ÅA, c=144.4 Å, and (β=113.1°. Data for 2.8 Å were collected using synchrotron-radiation with λ=1.05 Å on the BW6-beamline of the DESY, Hamburg, Germany. Crystals were soaked in a cryo-protecting buffer (30% MPD, 20 mM magnesium acetate, 100 mM morpholino ethanesulfonic acid pH 6.9), and frozen and in a stream of liquid nitrogen gas at 90K (Oxford Cryo Systems). X-ray-intensities were evaluated using the MOSFILM program-package (Version 6.1), and data reduction was performed with CCP4 (24). The anisotropy of the diffraction was corrected by a general anisotropic temperature factor through comparison of the observed and calculated structure-amplitudes using the program X-PLOR (25). An overall number of 2383416 reflexions that led to 248616 unique reflexions (96.9% completeness), was collected. […]
compound,measurement,setting,value
"CC(C)CC(C=O)NC(=O)C(CC(=O)OC(C)(C)C)NC(=O)C(CC(C)C)NC(=O)OCc1ccccc1 (stereo not drawn) [Compound 15, Z-Leu-Asp(O^tBu)Leu-CHO] (Cbz-Leu-Asp(OtBu)-Leu-aldehyde; configuration not given here)",IC50,[1],31 nM
same,IC50,Fibroblasts,500 to 1000 nM
same,binding mode to Thr1Oγ in crystal structure,[2]; 2.8 Å,covalent hemiacetal bond
same,specificity for the subunits in crystal structure,[2]; high concentrations of the inhibitors (10 mM),no specificity for the subunits
